We go through 12 molecules from US20240398767A1, “INHIBITORS OF THE MTDH-SND1 PROTEIN COMPLEX FOR CANCER THERAPY” (The Trustees of Princeton University, priority 2021, published 2024).

One experiment has as its target T1, MTDH-SND1 interaction (Homo sapiens, UniProt Q7KZF4).
T1 construct: made in house; host or cells: HEK293T cells, transient transfection of pcDNA3.1 plasmids; crude cleared lysates, each fusion expressed separately and the lysates pre-mixed
Nature of the experiment: Cell-free split-luciferase (Split-luc) assay, SND1-NLuc + CLuc-MTDH. The conditions noted are these: for IC50: split-luc assay in various concentrations. The format is biochemical. From the text: To generate a luciferase-based screening system, firefly luciferase was split into N- and C-terminals according to previous studies^21-23. Both N- and C-terminal domains alone have almost undetectable luciferase activity (FIG. 10A). Next, the two fragments were fused to SND1 and MTDH interaction domains respectively to generate SND1-NLuc and CLuc-MTDH (Split-luc) (FIG. 10A, left, and Table 3). […] However, when SND1-NLuc+CLuc-MTDH were co-expressed, N- and C-terminal domains of the luciferase fragments were brought close to each other due to the interaction between SND1 and MTDH, and substantial luciferase activity was reconstituted (FIG. 3A, left and FIG. 10A).
Luciferase-based screening. Seed HEK293T cells on 3×15 cm dish at 18-24 hr before transfection with 7-8×10^6 cells per dish targeting 70-80% confluence when start transfection. 20 μg of pCDNA3.1-SND1-NLuc, pCDNA3.1-CLuc-MTDH, or 2 μg of pCDNA3.1-NLuc-CLuc plasmids that described above were transfected to each dish. 72 hr after transfection the cells were lysed with 5 ml of luciferase lysis buffer (2 mM EDTA, 20 mM DTT, 10% glycerol, 1% Triton X-100, 25 mM Tris base, adjusted to pH7.8 with H3PO4) at 4° C. for 20 min. The protein lysates were centrifuged at 13,000 rpm for 10 min, and the supernatant were collected.
For small chemical compound screening, white, flat-bottom, solid 384-well plates were used. Compounds were added into each well as 0.1 μl of 10 mM DMSO solution (or same amount of DMSO, serve as control). The first and last columns were free, and MTDH wild type (PNSDWNAPAEEWGNW) or mutant (PNSDANAPAEEAGNW) peptides were added as positive and negative controls right before screening. Same amount of MTDH-CLuc and SND1-NLuc were pre-mixed at 4° C. for 30 min to generate split-luc. 5 μl of split- or linked-luc was added into each well. 15 μl of luciferase assay buffer (25 mM Glycylglycine pH 7.8, 15 mM K3PO4 pH 7.8, 15 mM MgSO4, 4 mM EGTA, 2 mM ATP added just before use, 10 mM DTT added just before use and 1 mM D-Luciferin added just before use) was then added into each well to get a 20 μl reaction system with 50 μM of compounds (peptides) in each well. The plates were incubated at 4° C. for 1 hr and luciferase activity at each well was measured.
The inhibitory efficiency of each compound was calculated as following: (signal at DMSO well−signal at compound well)/signal at DMSO well. MTDH wild type or mutant peptide in each plate was served as positive and negative controls to monitor the data quality of each plate.

The target of experiment [1] is T2, MTDH-SND1 interaction: SND1-NLuc (human SND1 16-339aa fused via 3x GGGS linker to N-terminal firefly luciferase 1-416aa) + CLuc-MTDH (C-terminal firefly luciferase 398-550aa fused via 3x GGGS linker to human MTDH 386-407aa) (Homo sapiens, UniProt Q7KZF4).
T2 construct: CLuc (398-550)-GGGS linker-MTDH (386-407) with HA tag; expressed in HEK293T; cell-free split-luciferase complementation
T2 sequence (Q7KZF4 with tags, fused parts or gaps): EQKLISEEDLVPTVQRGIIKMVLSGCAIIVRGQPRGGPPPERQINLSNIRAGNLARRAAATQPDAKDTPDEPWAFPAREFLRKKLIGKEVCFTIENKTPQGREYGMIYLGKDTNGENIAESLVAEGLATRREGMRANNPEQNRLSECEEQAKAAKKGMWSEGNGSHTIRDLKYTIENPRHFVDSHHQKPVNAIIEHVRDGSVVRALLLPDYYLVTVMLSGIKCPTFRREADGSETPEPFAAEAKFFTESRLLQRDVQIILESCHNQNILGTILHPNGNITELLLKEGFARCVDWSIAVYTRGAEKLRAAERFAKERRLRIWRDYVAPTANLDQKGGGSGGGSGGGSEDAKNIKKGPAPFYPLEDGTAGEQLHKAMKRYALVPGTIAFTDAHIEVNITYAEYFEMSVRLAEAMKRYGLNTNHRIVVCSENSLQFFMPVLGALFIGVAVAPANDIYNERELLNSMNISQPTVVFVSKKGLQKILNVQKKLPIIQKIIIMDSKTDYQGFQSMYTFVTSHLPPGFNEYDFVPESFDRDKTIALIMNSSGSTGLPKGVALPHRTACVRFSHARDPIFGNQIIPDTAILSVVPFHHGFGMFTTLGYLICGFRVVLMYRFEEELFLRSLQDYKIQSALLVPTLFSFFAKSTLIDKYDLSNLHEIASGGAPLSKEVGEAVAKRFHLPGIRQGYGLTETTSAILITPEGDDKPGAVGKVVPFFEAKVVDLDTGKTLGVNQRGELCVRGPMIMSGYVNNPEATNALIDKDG
T2 sequence (Q86UE4 386-407 partner): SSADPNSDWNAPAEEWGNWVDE
Nature of the experiment: Cell-free split-luciferase assay of MTDH-SND1 interaction disruption, multiple doses (FIG. 3E). The class given is binding. Conditions: cell free (HEK293T lysates), curves fit, read-out: MTDH-SND1 interaction (split-luciferase) SND1-NLuc + CLuc-MTDH interaction domains IC50.

Another experiment concerns 4TO7 lung metastases. The experiment is described as follows: Established 4TO7 lung macrometastases. The class given is in vivo, Balb/C females. Here is the method:
For FIGS. 7A-7D, 2 k 4TO7 cells were injected into Balb/C females. 2 weeks after the injections, the mice were randomized based on lung metastasis that indicated by BLI, and were divided into four groups followed by vehicle, paclitaxel (Pac), and C26-A6 treatment alone or in combination. For Pac, the mice were treated with 20 mg/kg of Pac twice per week for the first two week and then once per week after that, For C26-A6, the mice were treated with 15 mg/kg of C26-A6 5 days per week. n=6 mice per group. Data represent mean±SEM.
FIG. 7A, Representative mice right before the treatment (week 2) and at week 10 are shown.
FIG. 7B, The BLI signal was quantified at week 2. Significance determined by one-way ANOVA analysis with Dunnett's test for multiple comparisons.
FIG. 7C, The metastasis progression of each individual is shown.
FIG. 7D, Survival rate in each group was analyzed. Significance determined by two-sided Log-rank test.
Lastly, to mimic the clinical scenario of adjuvant chemotherapy following surgical removal of the primary tumors, SCP28 mammary tumors were removed when they reached 5 mm in diameter, the mice were then randomly separated into four groups and subjected to the different treatment regimens as above. […] The mice were then treated with vehicle or paclitaxel and C26-A6 alone or in combination, and the metastasis progression was monitored by BLL.

The target in experiment [2] is T3, Linked-luc (NLuc and CLuc of firefly luciferase fused together) (Photinus pyralis, UniProt P08659, INS416[…]).
T3 construct: made in house; host or cells: HEK293T cells, transient transfection of pcDNA3.1-NLuc-CLuc; crude cleared lysate
T3 sequence (P08659 with tags, fused parts or gaps INS416[withheld]): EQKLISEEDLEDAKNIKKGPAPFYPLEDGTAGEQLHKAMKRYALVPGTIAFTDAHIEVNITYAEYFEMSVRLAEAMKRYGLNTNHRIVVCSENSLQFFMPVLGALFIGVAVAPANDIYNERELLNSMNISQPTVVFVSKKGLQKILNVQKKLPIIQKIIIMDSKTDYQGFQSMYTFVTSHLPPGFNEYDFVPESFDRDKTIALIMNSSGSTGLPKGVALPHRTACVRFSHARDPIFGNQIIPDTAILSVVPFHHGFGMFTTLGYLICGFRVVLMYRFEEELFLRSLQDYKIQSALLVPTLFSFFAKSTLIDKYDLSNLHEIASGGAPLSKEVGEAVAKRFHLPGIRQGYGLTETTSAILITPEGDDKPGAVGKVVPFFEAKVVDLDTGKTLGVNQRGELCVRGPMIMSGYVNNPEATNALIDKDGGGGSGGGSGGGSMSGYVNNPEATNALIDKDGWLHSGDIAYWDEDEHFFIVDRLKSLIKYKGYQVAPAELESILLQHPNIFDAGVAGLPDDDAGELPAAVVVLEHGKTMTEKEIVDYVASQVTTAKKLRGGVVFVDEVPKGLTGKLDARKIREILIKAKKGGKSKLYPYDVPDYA
Nature of the experiment: Linked-luciferase (Linked-luc) counter screen, cell free. The class given is biochemical. The conditions noted are these: 50 μM peptide. From the text:
The interaction between SND1-NLuc and CLuc-MTDH was also validated with co-immunoprecipitation (Co-IP) experiments (FIG. 10B). In the presence of the compounds (inhibitors) that block MTDH-SND1 interaction, the reconstitution of luciferase activity was expected to be reduced (FIG. 3A). Meanwhile, considering the possibility that compounds capable of directly inhibiting the enzymatic activity of luciferase could also result in lower luciferase signal without any blocking effect on MTDH-SND1 interaction, Linked-luc that directly fuse NLuc and CLuc together was generated to be used in counter screening (FIG. 3A, right, and Table 3).
Luciferase-based screening. Seed HEK293T cells on 3×15 cm dish at 18-24 hr before transfection with 7-8×10^6 cells per dish targeting 70-80% confluence when start transfection. 20 μg of pCDNA3.1-SND1-NLuc, pCDNA3.1-CLuc-MTDH, or 2 μg of pCDNA3.1-NLuc-CLuc plasmids that described above were transfected to each dish. 72 hr after transfection the cells were lysed with 5 ml of luciferase lysis buffer (2 mM EDTA, 20 mM DTT, 10% glycerol, 1% Triton X-100, 25 mM Tris base, adjusted to pH7.8 with H3PO4) at 4° C. for 20 min. […]
For small chemical compound screening, white, flat-bottom, solid 384-well plates were used. […] The plates were incubated at 4° C. for 1 hr and luciferase activity at each well was measured.
On the technique in general: The purpose of a counterscreen is to sort out artefacts and off-target activity.

The IC50 is the concentration needed to halve the response being measured.

T1 sequence (Q7KZF4 with tags, fused parts or gaps): as the sequence (Q7KZF4 with tags, fused parts or gaps) above

`COc1ccc(NC(=O)N2CCc3c(C(=O)NC4CCN(C)CC4)cccc32)cc1` [Analog C32]: the IC50 at MTDH-SND1 interaction was less than 20 µM.

On to `COc1ccc(NC(=O)N2CCc3c(C(=O)N(C)C)cccc32)cc1` [Compound C32-A5], for which, in experiment [1], the IC50 is 4.6 µM.

As to `COc1ccc(Cl)cc1S(=O)(=O)Nc1cccn2ncnc12` [Compound C26-A2], the IC50 in experiment [1] is 9.4 µM.

In the case of `COc1ccc(NC(=O)N2CCc3c(C(=O)NC4CCN(C)CC4)cccc32)cc1` [Compound C32], in experiment [1], the IC50 came out at 51.1 µM.

Regarding `COc1ccc(Cl)cc1S(=O)(=O)Nc1cccn2c(C3CCC3)nnc12` [Analog C26], the half-maximal inhibitory concentration (IC50) at MTDH-SND1 interaction was less than 20 µM.

Take `CC(=O)O[C@H]1C(=O)[C@@]2(C)[C@H]([C@H](OC(=O)c3ccccc3)[C@]3(O)C[C@H](OC(=O)[C@H](O)[C@@H](NC(=O)c4ccccc4)c4ccccc4)C(C)=C1C3(C)C)[C@]1(OC(C)=O)CO[C@@H]1C[C@@H]2O` [paclitaxel, reference compound]: the “metastatic growth (BLI)” value in the experiment on 4TO7 lung metastases (Pac 20 mg/kg, C26-A6 15 mg/kg 5 days per week) is given as “slowed down metastatic growth”. Further, in the experiment with 4TO7 lung metastases (six mice per group), the metastasis shrinkage entry was “did not result in metastasis shrinkage”.

On to `CNC(=O)c1cccc2c1CCN2C(=O)Nc1ccc(OC)cc1` [Compound C32-A4], for which, in experiment [1], the IC50 was 4.9 µM.

As for `COc1ccc(Cl)cc1S(=O)(=O)Nc1cccn2c(C3CCC3)nnc12` [Compound C26], the IC50 in experiment [1] was found to be 14.9 µM.

Consider “PNSDANAPAEEAGNW [MTDH-MT, reference compound]”, for which the linked-luc activity entry in experiment [2] was “not affected”. For the same molecule, the split-luc activity result in the experiment with MTDH-SND1 interaction (50 μM peptide) is on record as “but not the mutant significantly inhibited split-luc activity”.

Regarding `COc1ccc(Cl)cc1S(=O)(=O)Nc1cccn2nc(C)nc12` [Compound C26-A6], the IC50 in experiment [1] amounted to 2.4 µM.

For the molecule `COc1ccc(NC(=O)N2CCc3c(C(=O)NC4CCN(C5CC5)CC4)cccc32)cc1` [Compound C32-A2], in experiment [1], the IC50 came out at 14.5 µM.

As to `COc1ccc(Cl)cc1S(=O)(=O)Nc1cccn2cnnc12` [Compound C26-A1], the IC50 in experiment [1] was 8.6 µM.
